Results: patent publication US7736624B2, “Methods and compositions for diagnostic and therapeutic targeting of COX-2” (priority 2006, dated 2010)
Entries after “also recorded” stand apart in the source; their conditions may differ.

What was measured:
RAW264.7 cells = assay: In vitro cell imaging, LPS/IFNγ-activated RAW264.7 cells; type: cell-based, mouse; settings: for fluorescence imaging of cells: 200 nM, 30 minutes, LPS-activated RAW264.7; for fluorescent signal after indomethacin pretreatment: indomethacin (20 μM) pretreatment, RAW264.7
Procedure: RAW264.7 cells (a line established from a tumor induced in a mouse by Abelson murine leukemia virus and available from the American Type Culture Collection, Manassas, Va., United States of America) were grown overnight on 35 mm culture dishes (MatTek Corp., Ashland, Mass., United States of America) with glass coverslips in Dulbecco's Modified Eagle Medium (DMEM) plus 10% heat-inactivated fetal bovine serum (FBS). Platings of cells were done in order to reach 30% confluency the next day. After overnight growth, the growth medium was replaced with 2 ml serum-free DMEM per dish. Individual dishes then received 200 ng/ml LPS plus 10 units/ml murine IFNγ (Roche Applied Science, Indianapolis, Ind., United States of America) for 6 hours to induce COX-2. […] After 30 minutes, the cells were washed briefly three times in medium and incubated in Hank's balanced salt solution (HBSS)/Tyrode's for 60 minutes at 37° C. After 60 minutes, the HBSS/Tyrode's was removed and fresh HBSS/Tyrode's was added. The cells were immediately imaged using a Zeiss Axiovert 25 Microscope (propidium iodide filter/2-3 sec exposure/gain of 2).

[1] = system: 1483 Head/Neck Squamous Cell Carcinoma Cells; assay: In vitro cell imaging, 1483 Head/Neck Squamous Cell Carcinoma Cells; type: cell-based; settings: 1483 cells
[2] = Amounts of intact compound in tumors and normal tissues by HPLC-UV/MS; type: in vivo, Nude mice
Description: Additionally, the presence of intact Compound 27vv in tumors and normal tissues were examined by high performance liquid chromatography (HPLC) and mass spectroscopy (MS). Tumors and other tissues were collected from treated mice and immediately frozen on dry ice. Tissues were homogenized in Tris buffer (pH=7.4) and proteins precipitated with acetonitrile (ACN). Protein pellets were collected by centrifugation and dried before reconstitution in Tris buffer pH 7.4 plus 10% methanol. Proteins were purified by reverse-phase solid=phase extraction (RP-SPE) and analyzed by HPLC-UV using the conditions set forth in Table 4:
A standard curve was generated for Compound 27vv between 1 and 15 nmoles. Linear regression analysis generated an equation for the resulting line of y=311624x+85461 (R^2=0.9956). Various normal and tumor samples were then analyzed and the amounts of Compound 27vv present in the samples were determined.
The putative Compound 27vv peak in the tumor samples was collected and analyzed by LCMS in order to verify its identity.

[3] = system: HCA7 colorectal adenocarcinoma cells; assay: In vivo imaging of nude mice xenografted with HCA7 cells; settings: HCA7 subcutaneous xenograft
Description: In parallel experiments, nude mice were xenografted with a subcutaneous injection on a lateral side of 1×10^6. HCA7 colorectal adenocarcinoma cells (Marsh et al. (1993) J Pathol 170:441-450).

[4] = system: liver tumors from SW620 cells; assay: In vivo imaging of nude mice with liver metastases of SW620 cells; settings: 5 mg/kg i.p.
Description: Nude mice with liver tumors from SW620 cells (a human colorectal adenocarcinoma cell line that expresses a low level of COX-2 and that is available from ATCC) were obtained from Dr. Ray DuBois of the Vanderbilt-Ingram Cancer Center of Vanderbilt University (Nashville, Tenn., United States of America). Mice were obtained about 8-10 weeks after metastasis of the cells from the spleen. Control mice and mice bearing and tumor metastases were anesthetized and injected intraperitoneally (i.p.) with 5 mg/kg Compound 27vv. Images of injected mice were captured by a XENOGEN® IVIS® Imaging System (Xenogen Corp., Alameda, Calif., United States of America) using a Cy5.5 filter or a DsRed filter (1 second exposure/f2/high resolution/1.5 cm depth). […] At 5 hours post-injection, mice were euthanized and liver tumors were imaged by fluorescence microscopy.

Row | level in normal liver tissue ([2]; HPLC and MS) | Amount of Compound 27vv in sample ([2]; Mouse 1 - giant tumor A) | Compound 27vv ([2]; Mouse 1 - giant tumor A) | Amount of Compound 27vv in sample ([2]; Mouse 1 - giant tumor B) | Compound 27vv ([2]; Mouse 1 - giant tumor B) | Amount of Compound 27vv in sample ([2]; Mouse 1 - giant tumor C) | Compound 27vv ([2]; Mouse 1 - giant tumor C) | Amount of Compound 27vv in sample ([2]; Mouse 1 - giant tumor D) | Compound 27vv ([2]; Mouse 1 - giant tumor D) | Compound 27vv nmol/g ([2]; Mouse 2 - normal liver lobe) | Compound 27vv nmol/g ([2]; Mouse 2 - small tumor) | Compound 27vv nmol/g ([2]; Mouse 2 - tissue between the lobes) | SMILES | fluorescence imaging of cells (RAW264.7 cells) | fluorescent signal after indomethacin pretreatment (RAW264.7 cells) | fluorescent staining of cells ([1]; 200 nM) | fluorescent staining after indomethacin pretreatment ([1]; indomethacin pretreatment) | intact compound in SW620 tumors ([2]; 5 hours post-injection, HPLC and MS) | tumor fluorescence in vivo and after removal of tumor masses [3] | in vivo fluorescence imaging ([4]; 30 minutes and 3-4 hours post-injection) | fluorescence microscopy of excised liver tumors ([4]; 5 hours post-injection)
1 |  |  |  |  |  |  |  |  |  |  |  |  | COc1ccc2c(c1)c(CC(=O)NCCCCNC(=O)c1ccc(C3=c4cc5c6c(c4Oc4c3cc3c7c4CCCN7CCC3)CCC[N+]=6CCC5)c(C(=O)[O-])c1)c(C)n2C(=O)c1ccc(Cl)cc1 [Compound 27eee] | good specific staining; also recorded: consistent fluorescent signals over control cells | reducible by pretreatment with indomethacin | good specific staining; also recorded: considerable fluorescence | reducible by pretreatment with indomethacin |  |  |  | 
2 | below the limit of detection | 3.3 nmol | 31.1 nmol/g | 1.8 nmol | 15.3 nmol/g | 4.7 nmol | 41.1 nmol/g | 0.2 nmol | 0.9 nmol/g | <Std. A | <Std. A | <Std. A | COc1ccc2c(c1)c(CC(=O)NCCCCNC(=O)c1ccc(C(=O)[O-])c(C3=c4cc5c6c(c4Oc4c3cc3c7c4CCCN7CCC3)CCC[N+]=6CCC5)c1)c(C)n2C(=O)c1ccc(Cl)cc1 [Compound 27vv] | LPS activation enhanced imaging; also recorded: consistent fluorescent signals over control cells | reduced the fluorescent signal |  |  | confirmed the presence of intact Compound 27vv | strong tumor-specific fluorescence | liver-specific imaging | strongly fluoresced
